Where two headings read alike, the source gives them in different places. Marks after values point to notes of the source that are not given here.
How the values were obtained:
[1] = pH-potentiometry of 1:1 ligand and Fe3+ solution (complex protonation constants, speciation); type: physicochemical; conditions: Fe^3+ complex, 0.1 M NaCl, 310 K; for log KML/ML(OH): 7.0 mM each Fe and ligand, [ML]/[ML(OH)][H], not an absolute protonation constant; for log KHML: KHML = [HML]/[H][ML]; for log KML: footnote d only: pH-potentiometry
Protocol: (§1) pH-potentiometric measurements: pH-potentiometric measurements were performed using an Orion ROSS Ultra pH electrode and temperature-controlled reaction vessel held at 310 K. A standardized solution of 0.10 M NaOH was used as the titrant. The electrode was calibrated prior to each titration by titrating a standardized HCl(aq) solution at ionic strength 0.10 using NaCl as the inert electrolyte with the standardized NaOH titrant. A working slope and intercept were generated by plotting mV as a function of calculated pH, which enabled direct conversion of electrode readings to [H^+] during sample titrations. pH values recorded during the titrations refers to hydrogen ion concentration. All titration samples were prepared in solutions of 0.10 M NaCl in distilled, de-ionized water. Ligand solutions were prepared by dissolving a weighed quantity into the electrolyte and concentration was calculated from the effective weight of the ligand. Moles ligand present in titrand was also confirmed by measuring the mol added NaOH required to span each inflection point. Solutions of 1:1 ligand: Fe were prepared by adding an appropriate volume of standardized FeCl3 in 0.088 M HCl solution to a weighed quantity of ligand, the solutions were then adjusted with water and 1 M NaCl to ionic strength 0.10. The data was analyzed using the Hyperquad2013 software package.

[2] = pH-potentiometry of ligand (protonation constants); type: physicochemical; conditions: 0.1 M NaCl, 310 K; for log KLH: KLHn = [HnL]/[H][Hn-1L]
Protocol: as §1

[3] = Dimerization constant from concentration dependence on extinction coefficient at 342 nm (UV-vis); type: physicochemical; conditions: Fe^3+ complex, pH 9.0, 310 K
Protocol: UV-vis spectra were recorded on a SpectraMax M2 spectrophotometer using quartz cuvettes with a 1 cm path length. Extinction coefficients recorded at pH 9 (ε, M^−1cm^−1) were estimated by dividing absorbance by sample Fe concentration.

[4] = Dimerization constant from concentration dependence on relaxivity at pH 9.0; type: physicochemical; conditions: Fe^3+ complex, pH 9.0, 310 K
From the text: (§2) The dissociation constant for (ML)2O formation was estimated from the concentration dependence on r1 at pH 9.0, under these experimental conditions, complexes speciation is comprised near entirely by ML(OH) and the corresponding (ML)2O dimer and r1 can be expressed as Eq 7A, […]
r1=r1^monαmon+r1^dimαdim (Eq 7A) where r1^mon and r1^dim are the r1 corresponding to ML(OH) and (ML)2O and αmon and αdim are the fraction of total [Fe] comprised by each.
The concentration dependence on monomer vs. dimer speciation is governed by the equilibrium constant (Kd) in Eq 7B, Eq 7B can be rearranged to the corresponding quadratic equation, Eq 7C, and concentration of dimer solved by Eq 7D, Thus, the concentration dependence on ri was fit to a 3 parameter fit based on Eqs 7A-7D, yielding estimates of r1^mon, r1^dim, and Kd.

[5] = Estimation of log K (formation constant) from EDTA competition assay, HPLC; type: physicochemical; conditions: Fe^3+ complex; estimated from Kcomp using EDTA challenge; KML = [ML]/[M][L]
From the text: The [Fe(PyCy2AI)]^+ formation constant was estimated from direct competition with EDTA at pH 4.4, I=0.1 M KNO3, and 310 K. Product distribution at equilibrium was estimated from an HPLC analysis of the reaction mixture (HPLC method A1). The equilibrium concentrations of [Fe(PyCy2AI)]^+ were quantified according to a linear calibration plot of HPLC peak area as a function of chelate concentration. An equilibrium constant, Keq, was estimated using Eq 4A,
The conditional (pH 4.4) formation constant, Kcond, was estimated from Keq and the previously (Kcond of Fe-EDTA measured under identical conditions using Eq 4B,
Under HPLC experimental conditions that cannot distinguish between chemical forms of the complex, the conditional stability constant can be estimated from the concentration coefficient of the ligand “L”, or PyCy2AI^2−, species (αL), which is known from the ligand pH-titration data. The formation constant was thus estimated using Eq 4C,
The HPLC assay conditions were chosen specifically to minimize contributions from ‘side products’ such as [Fe(HPyCy2AI)]^2+, [Fe(PyC2AI)(OH)], or [Fe(HEDTA)], which together we estimate to contribute <5% and <2% of total PyCy2AI and EDTA speciation.

[6] = Fe^3+ complexes of reference ligands; method and conditions not given; cited from earlier work
[7] = Relaxivity measurements (r1) of Fe-PyCy2AI species; type: physicochemical; conditions: Fe^3+ complex; estimated from pH dependence on r1
Protocol: Relaxivity measurements were performed on a Bruker mq60 Minispec, 1.41 T, and on an 11.7 T Varian NMR spectrometer at 37° C. Longitudinal (T1) relaxation times were measured via an inversion recovery experiment using 10 inversion times of duration ranging between 0.05 s T1 and 5 s T1. Transverse (T2) relaxation times were measured using a Carl-Purcell-Meiboom-Gill spin-echo experiment. Under experimental conditions where 1/T1,2 increased linearly with increasing [Fe], relaxivity (r2i=1,2) was determined from the slope of a plot of 1/Ti(i=1,2) vs. [Fe] for at least 4 concentrations. Under conditions where non-negligible dimerization occurs, plots of 1/T1,2 vs. [Fe] are non-linear and r1,2 were estimated by dividing the Fe induced increase in 1/T1,2 by [Fe]. […]
as §2
Magnetic resonance imaging was performed using a Bruker Biospec 4.7 T system. […] T1 values for each compound was determined using a 2D rapid acquisition refocused echo (RARE) sequence of flip angle (FA)=90°, echo time (TE)=20 ms, repetition time (TR) ranging from 146-7500 ms, acquisition matrix=256×128, field of view=64×32 mm, slice thickness 1 mm. […]

Row | SMILES | log KML/ML(OH) [1] | log KHML ([1]; 7.0 mM ligand and Fe^3+) | log KMLH-1/MLH-2 ([1]; 7.0 mM ligand and Fe^3+, [MLH-1]/[MLH-2][H]) | log KLH2 [2] | log KLH3 [2] | log KLH4 [2] | log KLH [2] | Dimerization Ka [3] | Dimerization Ka ([4]; 1.4 T) | Dimerization Ka ([4]; 4.7 T) | Dimerization Ka ([4]; 11.7 T) | log KML [5] | Dimerization Ka [6] | log KML/ML(OH) [7] | log KML ([1]; 7.0 mM ligand and Fe^3+)
1 | O=C(O)CN(Cc1c[nH]cn1)C1CCCC[C@@H]1N(CC(=O)O)Cc1ccccn1 (mixture of isomers) [PyCy2AI, (±)-trans-N-((1H-imidazol-4-yl)methyl)-N′-(picolyl)-N,N′-cyclohexane-1,2-diamine diacetate bis-trifluoroacetic acid] | 6.46 ± 0.03 | 2.91 ± 0.05 | 10.24 ± 0.05 | 6.44 ± 0.03 | 4.23 ± 0.033 | 2.27 ± 0.05 | 10.62 ± 0.04 | 6.2 ± 1.5 mM⁻¹ | 2.3 ± 0.57 mM⁻¹ | 5.1 ± 2.7 mM⁻¹ | 7.4 ± 5.5 mM⁻¹ | 23.9 ± 0.03^c |  |  | 
2 | CC(CN(CC(=O)O)CC(=O)O)N(CC(=O)O)CC(=O)O (stereo not shown) [PDTA, N,N,N′,N′-1,2-propylenediaminetetracetic acid] |  |  |  |  |  |  |  |  |  |  |  |  | 0.19 mM⁻¹ |  | 
3 | O=C(O)CN(CC(=O)O)[C@H]1CCCC[C@@H]1N(CC(=O)O)Cc1ccccn1 [PyC3A] |  |  |  | 6.39 | 3.13 |  | 10.16 |  |  |  |  | 26.0^c |  | 8.50^g | 
4 | O=C(O)CN(CCO)CCN(CC(=O)O)CC(=O)O [HEDTA, Hydroxyethylethylenediaminetriacetic acid] |  |  |  |  |  |  |  |  |  |  |  |  | 0.24 mM⁻¹ |  | 
5 | O=C(O)CN(CCN(CC(=O)O)CC(=O)O)CC(=O)O [EDTA, Ethylenediaminetetraacetic acid] | 7.37 | 1.3 |  | 6.13 | 2.69 | 2.00 | 10.19 |  |  |  |  |  | 0.44 mM⁻¹ |  | 25.1
6 | O=C(O)CN(CC(=O)O)C1CCCCC1N(CC(=O)O)CC(=O)O (stereo not shown) [CyDTA, 1,2-Cyclohexylenedinitrilotetraacetic acid] | 9.57 |  |  | 6.12 | 3.49 | 2.40 | 12.3 |  |  |  |  |  | 0.012 mM⁻¹ |  | 29.1

— patent US20230406873A1, “PROBES, SYSTEMS, AND METHODS FOR MAGNETIC RESONANCE PH SENSING” (The General Hospital Corporation, priority 2020, published 2023)
